Here are results for one substance from patent publication US20150377888A1, “Methods for Predicting and Preventing Metastasis in Triple Negative Breast Cancers” (INSERM (INSTITUT NATIONAL DE LA SANTÉ ET DE LA RECHERCHE …, priority 2013, published 2015).

Assay [1] deals with TNBC breast cancer cell lines (Hs578T, MDA-MB-231 and MDA-MB-468). Briefly: In vitro motility assay (Boyden chambers). In kind it is cell-based, human. The procedure:
Boyden chambers (Millipore, Molsheim, France) containing 8 μm pore membranes were cultured in 24-well plates. After hydration of the membranes, 10^5 cells were added to the top chamber in low serum (1%)-containing medium. […] Cells were cultured for 24 h at 37° C. in a 5% CO2 humidified incubator. To quantify invasion, cells were fixed with methanol and stained with Giemsa. Stained cells were then removed from the top side of the membrane using a cotton-tipped swab and five representative pictures for each insert were taken of the invading cells from the reverse side. For each experiment, cells were lysed and absorbance at 560 nm was measured.

The subject of the next assay is PI3K. The assay can be described thus: Immunoblot of Akt phosphorylation at Ser473 (hallmark of PI3K activation) in cells exposed to cl-CD95L. In kind it is cell-based, human. The settings on record: all tested TNBC cell lines. The procedure: Cells were lysed for 30 min at 4° C. in lysis buffer [25 mM HEPES (pH 7.4), 1% v/v Triton X-100, 150 mM NaCl, and 2 mM EGTA supplemented with a mix of protease inhibitors (Sigma-Aldrich)]. Protein concentration was determined by the bicinchoninic acid method (PIERCE, Rockford, Ill., USA) according to the manufacturer's protocol. Proteins were separated by SDS-PAGE and transferred to a nitrocellulose membrane (GE Healthcare, Buckinghamshire, England). […] The proteins were visualized with the enhanced chemiluminescence substrate kit (ECL, GE Healthcare).
Background: Immunoblotting shows a protein as a band on a membrane.

The subject of another assay is NADPHox. The assay can be described thus: Flow cytometry analysis of intracellular ROS (H2FDA). The assay is classed as cell-based, human. Here is the method: Cells were pre-incubated for 30 min at 37° C. with 3 μM of H2FDA resuspended in PBS. The cells were then pre-incubated for an additional 30 min with or without ROS inhibitors before stimulation with 100 ng/ml cl-CD95L for the indicated times. Cells were then washed and analyzed by FACScalibur (BD Bioscience).
A general note: In flow cytometry, cells or beads pass a laser one at a time.

For a further assay, the system named is EGFR. The assay can be described thus: EGFR phosphorylation at Tyr845 / CD95-driven EGFR activation. In kind it is cell-based, human. The settings on record: MDA-MB-468 cells exposed to cl-CD95L. The procedure: Cells were lysed for 30 min at 4° C. in lysis buffer [25 mM HEPES (pH 7.4), 1% v/v Triton X-100, 150 mM NaCl, and 2 mM EGTA supplemented with a mix of protease inhibitors (Sigma-Aldrich)]. Protein concentration was determined by the bicinchoninic acid method (PIERCE, Rockford, Ill., USA) according to the manufacturer's protocol. Proteins were separated by SDS-PAGE and transferred to a nitrocellulose membrane (GE Healthcare, Buckinghamshire, England). The membrane was blocked for 15 min with TBST (50 mM Tris, 160 mM NaCl, 0.05% v/v Tween 20, pH 7.8) containing 5% w/v dried skimmed milk (TBSTM) and then incubated overnight with primary antibody at 4° C. in TBSTM. The membrane was intensively washed (TBST) and peroxidase-labeled anti-rabbit or anti-mouse (SouthernBiotech, Birmingham, Ala., US) was added for 45 min. The proteins were visualized with the enhanced chemiluminescence substrate kit (ECL, GE Healthcare).

Another assay deals with T1, CD95 (Homo sapiens, UniProt P25445).
T1 construct: endogenous in cells; host or cells: MDA-MB-231 and MDA-MB-468 human TNBC breast cancer cells
T1 sequence (P25445 26-335): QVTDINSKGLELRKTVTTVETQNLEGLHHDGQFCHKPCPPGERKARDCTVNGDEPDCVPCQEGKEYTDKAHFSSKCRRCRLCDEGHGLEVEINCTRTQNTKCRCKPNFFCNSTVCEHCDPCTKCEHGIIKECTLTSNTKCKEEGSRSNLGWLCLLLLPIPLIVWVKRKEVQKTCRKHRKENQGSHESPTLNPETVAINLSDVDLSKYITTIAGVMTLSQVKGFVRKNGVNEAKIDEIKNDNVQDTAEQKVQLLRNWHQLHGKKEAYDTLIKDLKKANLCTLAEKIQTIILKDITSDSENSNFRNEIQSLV
T1 sequence (P48023 130-281 partner limits assumed): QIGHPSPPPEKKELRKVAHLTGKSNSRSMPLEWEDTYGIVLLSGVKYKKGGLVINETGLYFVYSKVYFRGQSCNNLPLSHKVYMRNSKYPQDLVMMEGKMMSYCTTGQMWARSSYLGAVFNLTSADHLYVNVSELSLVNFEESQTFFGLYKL
The assay can be described thus: MISC immunoprecipitation. In kind it is cell-based. The settings on record: MDA-MB-231 and MDA-MB-468 cells stimulated with cl-CD95L. The procedure:
Breast cancer cells (20×10^6 cells per condition) were incubated with 100 ng/ml cl-CD95L for the indicated times. The cells were then lysed, 1 μg of Apo1-3 was added to the cell lysate and CD95 was immunoprecipitated by the addition of protein A-sepharose beads (Sigma-Aldrich). For the immunoprecipitation of EGF-R, 1 μg mouse anti-EGF-R (Santa Cruz Biotechnology, CA, USA) was added to the cell lysate and EGF-R was immunoprecipitated with protein A-sepharose beads (Sigma-Aldrich). After extensive washing, the immune complex was resolved by SDS-PAGE.

Turning to “cl-CD95L: soluble ligand produced by metalloprotease cleavage of the transmembrane CD95L (FasL); produced in transfected 293 cells”, in assay [1] (Hs578T, MDA-MB-231 and MDA-MB-468, Boyden chambers), the “motility of TNBC cells stimulated with cl-CD95L” value is reported as “dramatic increase in motility”. Besides, the “migration of TNBC cells, titration of cl-CD95L” value in assay [1] (cl-CD95L at 100 pg/ml) is “induced migration of TNBC cells”. The “phosphorylation of Akt at Ser473 induced by CD95L” value in the assay on PI3K is listed as “induced rapid phosphorylation of Akt”. Moreover, in the assay on NADPHox, the “intracellular ROS in breast cancer cells exposed to cl-CD95L” value is “rapid increase in intracellular ROS”. For the same substance, in the assay with EGFR, the “phosphorylation of EGFR at Tyr845” value was “resulted in phosphorylation of EGFR at Tyr845”, the “time of peak of EGFR Tyr845 phosphorylation” value turned out to be 2 min and the “time of stimulation after which EGFR Tyr845 phosphorylation disappeared” value came to 10 min. Besides, the MISC formation entry with CD95 is given as “induces MISC formation”.
